One assay concerns MCT-PAH. Briefly: MCT-PAH rat model: right heart catheterisation and histology. It counts as in vivo, SD-Ratten. Particulars: MCT-PAH rats, three times weekly for two weeks. The source says: (§1) Um das therapeutische Potenzial der EP300/CREBBP-Hemmung in vivo weiter zu erforschen, haben die Erfinder Versuchstiere in drei verschiedenen Nagetiermodellen mit etablierter PAH mit der Substanz CCS1477 behandelt, wobei CCS1477 durch orale Verabreichung über zwei Wochen lang dreimal wöchentlich verabreicht wurde. Es wurden folgende drei verschiedenen Nagetiermodelle für eine PAH (FHR-PAH, MCT-PAH und SuHx-PAH) getestet: • Fawn-hooded hypertensive Ratten (FHR): Das ist ein genetischer Rattenstamm, bei dem PAH im Alter spontan auftritt und der ähnliche PAH-Anomalien aufweist, wie sie bei IPAH bei Menschen nach 40 Wochen auftreten. • Durch Monocrotalin (MCT) induziertes PAH-Rattenmodell. • Ein SUGEN5416/chronische Hypoxie (SuHx)-Rattenmodell für PAH, bei dem die Ratten eine einmalige Injektion von SUGEN5416 erhielten und anschließend einer chronischen Hypoxie (10% O2) ausgesetzt wurden (SuHx-PAH).
(§2) Für die MCT-PAH wurden männlichen und weiblichen SD-Ratten (Sprague-Dawley-Ratten) subkutan 60 mg/kg MCT (Sigma, Katalog: C2401) injiziert, um PAH zu induzieren. Bei der SuHx-PAH erhielten SD-Ratten eine einmalige subkutane Injektion von SUGEN5416 (20 mg/kg) und wurden drei Wochen lang einer normobaren Hypoxie ausgesetzt, bevor sie für zwei Wochen an die Raumluft zurückkehrten. Zwei Wochen nach der MCT-Injektion bzw. drei Wochen nach der SUGEN5416-Injektion (sobald PAH festgestellt wurde) wurden die Ratten nach dem Zufallsprinzip in vier Gruppen eingeteilt und erhielten zwei Wochen lang dreimal wöchentlich entweder Vehikel (Verabreichung von 1 % Methylcellulose in destilliertem Wasser oder intratracheale Vernebelung von 4 % DMSO in PBS als Negativkontrolle), CCS1477 (Verabreichung von 10 mg/kg in 1 % Methylcellulose + destilliertem Wasser). Einjährige männliche und weibliche FHR-Ratten mit etablierter PAH wurden in dieselben vier Gruppen wie beim MCT-Modell eingeteilt und denselben Behandlungsmethoden unterzogen. Nach zweiwöchiger Behandlung wurde eine Rechtsherzkatheteruntersuchung bei geschlossenem Thorax durchgeführt, um folgende hämodynamischen Daten zu erfassen: Systolischer Rechtsventrikulärer Druck (RVSP), mittlerer PA-Druck (mPAP), Herzzeitvolumen (CO) und Schlagvolumen (SV). Der Gesamtwiderstand der Lunge (TPR) wurde durch Division von mPAP durch CO ermittelt. Nach der hämodynamischen Messung wurden den Ratten Gewebeproben entnommen. Die Experimente wurden gemäß den Richtlinien des Canadian Council on Animal Care durchgeführt. Alle Protokolle wurden von der institutionellen Ethikkommission für Tiere (Tierschutzausschuss der Universität Laval) geprüft und genehmigt (Protokollnummer 2019-018-2). Alle Experimente folgten den Richtlinien für die präklinische Forschung bei PAH.
(§3) • Abbildung 1: Umkehrung von PAH-Phänotypen durch therapeutische Modulation der dysregulierten HATs EP300 und CREBBP ex vivo • A: PAH-FBs wurden mit siRNAs (siP300) behandelt, die auf EP300 abzielen (n=3), um die genspezifische funktionelle Rolle von EP300 bei der Hyperproliferation ex vivo 48 Stunden nach der Transfektion zu untersuchen. Die Zellproliferation wurde durch BrdU-Inkorporation bestimmt. Die Werte wurden auf scrambled siRNA (siScr) normalisiert und sind als Mittelwert ± SD angegeben (n=3, ungepaarter t-Test; *P < 0,05 vs. scrambled siRNA). • B: PAH-FBs wurden mit verschiedenen Konzentrationen des EP300/CREBBP-Inhibitors CCS1477 oder dem Lösungsmittel DMSO inkubiert, um die Wirkung der selektiven EP300/CREBBP-Inhibition auf die Zellproliferation (bewertet durch BrdU-Inkorporation) zu untersuchen. Als Vergleichssubstanz wurde ein weiterer EP300/CREBBP-Inhibitor (SGC-CBP30) parallel dazu unter denselben Bedingungen inkubiert. […]

Assay [1] relates to PAH-FBs. Nature of the assay: Cell proliferation by BrdU incorporation in PAH fibroblasts. It counts as cell-based, Mensch. The note with it: PAH-FBs isolated ex vivo, various concentrations, 24 h, vs. DMSO. The text has this: (§4) Diese Untersuchungen führten zu der Erkenntnis, dass die epigenetische Regulation der entwicklungsbedingten TF-Expression in der Lunge durch Modulation der EP300/CREBBP-Funktion rückgängig gemacht werden kann. Die Wirkung des niedermolekularen Inhibitors (Substanz, Wirkstoff) CCS1477 auf die Proliferation von Gefäßzellen, die Apoptose sowie die Gen- und Proteinexpression wurde mit Hilfe geeigneter Assays nach der Transfektion untersucht. Nachdem Zellen zur Subkonfluenz gewachsen sind, wurde ihnen mit steigenden Konzentrationen der selektive EP300-Inhibitor CCS1477 (Chemietek, Katalognummer: CT-CCS1477) hinzugefügt. Die aus PAH-Patienten isolierten FBs wurden also mit dem isoformselektiven HAT-Inhibitor CCS1477 behandelt. […]
(§5) • Abbildung 1: Umkehrung von PAH-Phänotypen durch therapeutische Modulation der dysregulierten HATs EP300 und CREBBP ex vivo • A: PAH-FBs wurden mit siRNAs (siP300) behandelt, die auf EP300 abzielen (n=3), um die genspezifische funktionelle Rolle von EP300 bei der Hyperproliferation ex vivo 48 Stunden nach der Transfektion zu untersuchen. […] Skalenbalken: 50 µm. • E: Die Wirkung der P300-Inhibition (200 µM) auf den Gefäßumbau wurde durch Quantifizierung der prozentualen medialen Wanddicke in den mit dem EP300/CREBBP-Inhibitor CCS1477 inkubierten PCLS im Vergleich zu den mit DMSO inkubierten Kontrollen bewertet. […]

The subject of another assay is PAH-PCLS. Nature of the assay: Vascular remodelling (medial wall thickness) in precision-cut lung slices ex vivo. It counts as cell-based, Mensch. The note with it: human PAH-PCLS, 200 µM on days 2 and 6, fixed day 10, vessels 20-150 µm, vs. DMSO. The text has this: Lungengewebeproben wurden von Patienten mit IPAH entnommen. Aus den mit 3% niedrigschmelzender Agarose gefüllten Lungenproben von Patienten mit IPAH wurden mit einem Vibratom (Leica Biosystems) Gewebeschnitte (400 µm dick) angefertigt. Die Lungengewebeschnitte wurden in DMEM-GlutaMAX-Medium mit 10 % fetalem Kälberserum, 1 % Penicillin/Streptomycin und 0,1 % Amphotericin B (Thermo Fisher Scientific) kultiviert, und die Behandlung wurde am zweiten Tag eingeleitet. Die Substanz CCS1477 wurde in einer Konzentration von 200 µM an den Tagen 2 und 6 verabreicht. Am 10. Tag wurde das Gewebe in 4% Paraformaldehyd (Roti-Histofix; Carl Roth) fixiert und in Paraffin eingebettet. Die mediale Wanddicke wurde in allen Gefäßen mit einer Größe von 20-150 µm in den Lungenschnitten gemessen.
Das therapeutische Potenzial der EP300/CREBBP-Hemmung durch die Substanz CCS1477 wurde untersucht. Dazu wurde die Wirksamkeit auf PAH-FBs und PAH-SMCs geprüft, die aus den Lungenarterien von menschlichen PAH-Patienten und aus den Lungenarterien von Ratten mit MCT-PAH (Rattenmodell mit Monocrotalin) isoliert wurden. […] Die Wirkung der EP300-Hemmung auf das vaskuläre Remodelling wurde durch Quantifizierung der prozentualen medialen Wanddicke in den mit der Substanz CCS1477 inkubierten PCLS im Vergleich zu den mit DMSO inkubierten Kontrollen bewertet. […]

Assay [2] relates to PAH-FBs. Briefly: Apoptosis by Cell Death Detection ELISAPLUS in PAH fibroblasts. The note with it: PAH-FBs isolated ex vivo, various concentrations, 24 h, vs. DMSO. It counts as cell-based, Mensch.
From the text: as §4, §5

Assay [3] relates to PAH-SMCs. Briefly: Cell proliferation (hyperproliferative phenotype) in PAH smooth muscle cells. Particulars: vs. DMSO. The assay is classed as cell-based, Mensch. The text has this: (§6) Diese Untersuchungen führten zu der Erkenntnis, dass die epigenetische Regulation der entwicklungsbedingten TF-Expression in der Lunge durch Modulation der EP300/CREBBP-Funktion rückgängig gemacht werden kann. Die Wirkung des niedermolekularen Inhibitors (Substanz, Wirkstoff) CCS1477 auf die Proliferation von Gefäßzellen, die Apoptose sowie die Gen- und Proteinexpression wurde mit Hilfe geeigneter Assays nach der Transfektion untersucht. Nachdem Zellen zur Subkonfluenz gewachsen sind, wurde ihnen mit steigenden Konzentrationen der selektive EP300-Inhibitor CCS1477 (Chemietek, Katalognummer: CT-CCS1477) hinzugefügt. Die aus PAH-Patienten isolierten FBs wurden also mit dem isoformselektiven HAT-Inhibitor CCS1477 behandelt. Gleichzeitig wurde den Zellen das Lösungsmittel DMSO (Sigma) mit entsprechenden Konzentrationen hinzugefügt.
(§7) PAH-FBs wurden mit verschiedenen Konzentrationen der Substanz CCS1477 oder dem Lösungsmittel DMSO inkubiert, um die Zellproliferation und die Induktion von Apoptose 24 Stunden danach zu untersuchen. […]
(§8) Das therapeutische Potenzial der EP300/CREBBP-Hemmung durch die Substanz CCS1477 wurde untersucht. […] Die Wirkung der EP300-Hemmung auf das vaskuläre Remodelling wurde durch Quantifizierung der prozentualen medialen Wanddicke in den mit der Substanz CCS1477 inkubierten PCLS im Vergleich zu den mit DMSO inkubierten Kontrollen bewertet. […]

The next assay has as its system SuHx-PAH. Nature of the assay: SuHx-PAH rat model (SUGEN5416/chronic hypoxia): right heart catheterisation and histology. It counts as in vivo, SD-Ratten. The note with it: three times weekly for two weeks.
From the text: as §1, §2, §3

The test system of the next assay is FHR-PAH. Nature of the assay: FHR-PAH rat model: right heart catheterisation and histology. The assay is classed as in vivo, Fawn-hooded hypertensive Ratten. Particulars: FHR-PAH rats, three times weekly for two weeks.
From the text: as §1, §2, §3

The test system of assay [4] is PAH-SMCs. Briefly: Apoptosis in PAH smooth muscle cells. The assay is classed as cell-based, Mensch. Particulars: vs. DMSO.
From the text: as §6, §7, §8

Setting [5] is: 10 mg/kg in 1 % methylcellulose, oral, vs. vehicle.
Where [6] appears, read: 10 mg/kg oral, TPR = mPAP divided by CO.
Setting [7] is: SUGEN5416/chronic hypoxia PAH rats, 10 mg/kg oral, vs. vehicle.
Where [8] appears, read: SuHx-PAH rats, 10 mg/kg in 1 % methylcellulose, oral, vs. vehicle.

In the case of `CO[C@H]1CC[C@H](n2c([C@@H]3CCCC(=O)N3c3ccc(F)c(F)c3)nc3cc(-c4c(C)noc4C)ccc32)CC1` [CCS1477, (S)-1-(3,4-difluorophenyl)-6-(5-(3,5-dimethylisoxazol-4-yl)-1-((1r,4S)-4-methoxycyclohexyl)-1H-benzo[d]imidazol-2-yl)piperidin-2-on], the RVSP entry in the assay with MCT-PAH (setting [5]), with SuHx-PAH (setting [8]) and with FHR-PAH (setting [5]) was “signifikanten Senkung” each time. The mPAP result with MCT-PAH (setting [5]), in the assay with SuHx-PAH (setting [8]) and in the assay with FHR-PAH (setting [5]) was “signifikanten Senkung” throughout. The “mediale Wanddicke der distalen PAs” value was “signifikant verringert” in the assay with MCT-PAH (10 mg/kg oral); “signifikant verringert” in the assay with SuHx-PAH (SuHx-PAH rats, 10 mg/kg oral); “signifikant verringert” with FHR-PAH (10 mg/kg oral). Besides, the CO result in the assay with MCT-PAH (10 mg/kg oral, vs. vehicle) is reported as “verbesserten sich nach der Behandlung mit der Substanz CCS1477 bei FHR-PAH und MCT-PAH signifikant”; in the assay on SuHx-PAH (setting [7]) it was “verbesserte CO und SV auch bei SUGEN5416/chronischer Hypoxie-PAH signifikant”; in the assay with FHR-PAH (10 mg/kg oral, vs. vehicle), “verbesserten sich nach der Behandlung mit der Substanz CCS1477 bei FHR-PAH und MCT-PAH signifikant”. In addition, the SV result in the assay on MCT-PAH (10 mg/kg oral, vs. vehicle) is given as “verbesserten sich nach der Behandlung mit der Substanz CCS1477 bei FHR-PAH und MCT-PAH signifikant”; in the assay with SuHx-PAH (setting [7]), “verbesserte CO und SV auch bei SUGEN5416/chronischer Hypoxie-PAH signifikant”; in the assay on FHR-PAH (10 mg/kg oral, vs. vehicle), “verbesserten sich nach der Behandlung mit der Substanz CCS1477 bei FHR-PAH und MCT-PAH signifikant”. Besides, the TPR entry with MCT-PAH (setting [6]) is “signifikanten Senkung”; in the assay on SuHx-PAH (SuHx-PAH rats, 10 mg/kg oral, TPR = mPAP divided by CO) it was “signifikanten Senkung”; in the assay on FHR-PAH (setting [6]), “signifikanten Senkung”. The “hyperproliferativer Phänotyp (Zellproliferation, Einbau von BrdU)” value with PAH-FBs [1] is reported as “schwächte den hyperproliferativen Phänotyp und die Apoptoserate von PAH-FBs und PAH-SMCs deutlich ab”. The “mediale Wanddicke der umgestalteten PAs” value in the assay on PAH-PCLS is “signifikante Verringerung der medialen Wanddicke”. Further, the “Apoptoserate (Induktion von Apoptose, Cell Death Detection ELISAPLUS)” value in the assay on PAH-FBs [2] is “schwächte den hyperproliferativen Phänotyp und die Apoptoserate von PAH-FBs und PAH-SMCs deutlich ab”. The “hyperproliferativer Phänotyp” value with PAH-SMCs [3] is on record as “schwächte den hyperproliferativen Phänotyp und die Apoptoserate von PAH-FBs und PAH-SMCs deutlich ab”. Moreover, the “molekulare Marker für Myokardhypertrophie” value with FHR-PAH (10 mg/kg oral) is “signifikant abgeschwächt”. Further, in the assay on PAH-SMCs [4], the Apoptoserate entry was “schwächte den hyperproliferativen Phänotyp und die Apoptoserate von PAH-FBs und PAH-SMCs deutlich ab”.
